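GI50: concentration for 50% inhibition of growth. TGI marks complete inhibition of growth.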
Legend:
Assay in all cases: NCI-60 cell line screen, 384-well format
[1] = tested on: T-47D breast
[2] = tested on: HT29 colon
[3] = tested on: TK-10 renal
[4] = tested on: UACC-257 melanoma
[5] = tested on: SF-539 CNS
[6] = tested on: MOLT-4 leukemia
[7] = tested on: U251 glioblastoma
[8] = tested on: SF-268 CNS
[9] = tested on: SK-MEL-2 melanoma
[10] = tested on: CAKI-1 renal
[11] = tested on: SF-295 CNS
[12] = tested on: ACHN renal
[13] = tested on: HL-60(TB) leukemia
[14] = tested on: NCI-H226 lung
[15] = tested on: BT-549 breast
[16] = tested on: SR leukemia
[17] = tested on: HOP-62 NSCLC
[18] = tested on: UO-31 renal
[19] = tested on: M14 melanoma
[20] = tested on: K-562 leukemia
[21] = tested on: HOP-92 NSCLC
[22] = tested on: HCT-15 colon
[23] = tested on: EKVX NSCLC
[24] = tested on: NCI/ADR-RES ovarian
[25] = tested on: SK-OV-3 ovarian
[26] = tested on: NCI-H23 lung
[27] = tested on: NCI-H460 NSCLC
[28] = tested on: DU-145 prostate
[29] = tested on: MALME-3M melanoma
[30] = tested on: SNB-19 CNS
[31] = tested on: A498 renal
[32] = tested on: COLO 205 colon
[33] = tested on: RXF 393 renal
[34] = tested on: 786-0 renal
[35] = tested on: MDA-MB-231 breast
[36] = tested on: LOX IMVI melanoma
[37] = tested on: PC-3 prostate
[38] = tested on: KM12 colon
[39] = tested on: NCI-H322M lung
[40] = tested on: NCI-H522 lung
[41] = tested on: OVCAR-5 ovarian
[42] = tested on: SK-MEL-28 melanoma
[43] = tested on: A549 NSCLC
[44] = tested on: HS 578T breast
[45] = tested on: HCT-116 colon
[46] = tested on: OVCAR-3 ovarian
[47] = tested on: IGROV1 ovarian
[48] = tested on: SNB-75 CNS
[49] = tested on: OVCAR-4 ovarian
[50] = tested on: CCRF-CEM leukemia
[51] = tested on: UACC-62 melanoma
[52] = tested on: OVCAR-8 ovarian
[53] = tested on: SK-MEL-5 melanoma
[54] = tested on: SW-620 colon
[55] = tested on: MCF7 breast
[56] = tested on: HCC-2998 colon
[57] = tested on: MDA-MB-435 melanoma
[58] = tested on: RPMI-8226 leukemia
[59] = tested on: SN12C renal

CN1C(=O)[C@@H](NC(=O)[C@H](CCC(F)(F)F)[C@H](CCC(F)(F)F)C(N)=O)N=C(c2ccccc2)c2ccccc21
GI50 [1]: 14.6 µM | TGI [1]: 65 µM | GI50 [2]: 62.5 µM | TGI [2]: > 100 µM | GI50 [3]: > 100 µM | TGI [3]: > 100 µM | GI50 [4]: > 63.2 µM | TGI [4]: > 100 µM | GI50 [5]: > 100 µM | TGI [5]: > 100 µM | GI50 [6]: 19.8 µM | TGI [6]: > 100 µM | GI50 [7]: 98.8 µM | TGI [7]: > 100 µM | GI50 [8]: > 43.9 µM | TGI [8]: > 90.2 µM | GI50 [9]: > 100 µM | TGI [9]: > 100 µM | GI50 [10]: 58.2 µM | TGI [10]: > 100 µM | GI50 [11]: 99.5 µM | TGI [11]: > 100 µM | GI50 [12]: > 100 µM | TGI [12]: > 100 µM | GI50 [13]: > 51.6 µM | TGI [13]: > 100 µM | GI50 [14]: > 52.7 µM | TGI [14]: > 100 µM | GI50 [15]: > 100 µM | TGI [15]: > 100 µM | GI50 [16]: 13.6 µM | TGI [16]: 33.6 µM | GI50 [17]: > 100 µM | TGI [17]: > 100 µM | GI50 [18]: 60.1 µM | TGI [18]: > 100 µM | GI50 [19]: > 100 µM | TGI [19]: > 100 µM | GI50 [20]: 71.6 µM | TGI [20]: > 100 µM | GI50 [21]: 33.9 µM | TGI [21]: > 100 µM | GI50 [22]: > 95.7 µM | TGI [22]: > 100 µM | GI50 [23]: > 100 µM | TGI [23]: > 100 µM | GI50 [24]: > 100 µM | TGI [24]: > 100 µM | GI50 [25]: > 100 µM | TGI [25]: > 100 µM | GI50 [26]: > 100 µM | TGI [26]: > 100 µM | GI50 [27]: 84.4 µM | TGI [27]: > 100 µM | GI50 [28]: > 100 µM | TGI [28]: > 100 µM | GI50 [29]: > 100 µM | TGI [29]: > 100 µM | GI50 [30]: > 100 µM | TGI [30]: > 100 µM | GI50 [31]: 42 µM | TGI [31]: > 100 µM | GI50 [32]: > 79.5 µM | TGI [32]: > 100 µM | GI50 [33]: 23.9 µM | TGI [33]: > 84.7 µM | GI50 [34]: 87.1 µM | TGI [34]: > 100 µM | GI50 [35]: > 93.3 µM | TGI [35]: > 100 µM | GI50 [36]: > 100 µM | TGI [36]: > 100 µM | GI50 [37]: > 94.6 µM | TGI [37]: > 100 µM | GI50 [38]: > 100 µM | TGI [38]: > 100 µM | GI50 [39]: > 100 µM | TGI [39]: > 100 µM | GI50 [40]: 79.9 µM | TGI [40]: > 100 µM | GI50 [41]: > 100 µM | TGI [41]: > 100 µM | GI50 [42]: > 83.8 µM | TGI [42]: > 100 µM | GI50 [43]: 67.5 µM | TGI [43]: > 100 µM | GI50 [44]: 24.7 µM | TGI [44]: > 100 µM | GI50 [45]: > 92.7 µM | TGI [45]: > 100 µM | GI50 [46]: 55.9 µM | TGI [46]: > 100 µM | GI50 [47]: > 100 µM | TGI [47]: > 100 µM | GI50 [48]: 17.3 µM | TGI [48]: 96.8 µM | GI50 [49]: 43.4 µM | TGI [49]: > 100 µM | GI50 [50]: 53.3 µM | TGI [50]: > 100 µM | GI50 [51]: > 100 µM | TGI [51]: > 100 µM | GI50 [52]: > 100 µM | TGI [52]: > 100 µM | GI50 [53]: > 59.4 µM | TGI [53]: > 100 µM | GI50 [54]: > 100 µM | TGI [54]: > 100 µM | GI50 [55]: 40.9 µM | TGI [55]: > 100 µM | GI50 [56]: > 100 µM | TGI [56]: > 100 µM | GI50 [57]: > 100 µM | TGI [57]: > 100 µM | GI50 [58]: 48.3 µM | TGI [58]: > 100 µM | GI50 [59]: > 100 µM | TGI [59]: > 100 µM
